In patent US8597686B2, “Porous cellulose aggregate and formed product composition comprising the same” (Asahi Kasei Chemicals Corporation, priority 2004, dated 2013):

Key:
[1] = Reactivity with pharmacological agent (aspirin decomposition ratio on storage); type: physicochemical; conditions: 60° C., airtight, two weeks
[2] = Elution test of ethenzamide; type: physicochemical; conditions: molded product at 50 MPa or pulverized bulk drug
Description: 0.2 g of the obtained mixed powder was weighed and put in a mortar (manufactured by Kikusui Seisakusho, Ltd. using materials SUS2, 3) and compressed with a round plane mallet (manufactured by Kikusui Seisakusho, Ltd. using materials SUS2, […], trade name, PCM-1A, compression rate 1 cm/min) and after held at the aimed pressure for 10 seconds, a columnar molded product was taken out. […]
1 g of Cellulose Aggregate G was added to 10 mL of a solution in which ethenzamide (manufactured by API Co., Ltd., a powder grade was pulverized with a small size pulverizer) was dissolved in ethanol (manufactured by Wako Pure Chemical Industries, Ltd., special grade chemical) in a ratio of 5:95 and stirred by a magnetic stirrer for three minutes. The obtained dispersion was introduced into an evaporator and completely deprived of solvent to obtain a powder sample.
Similarly operating as in Example 14 except that the pressure at the time of preparing a columnar molded product from this powder was changed to 50 MPa and elution test was performed.
Only the ethenzamide pulverized by the method of Example 15 was subjected to elution test.

aspirin decomposition ratio [1]	Dissolution Rate after 1 hour [2]	SMILES
15%		CC(=O)Oc1ccccc1C(=O)O [aspirin, Aspirin]
	9%	CCOc1ccccc1C(N)=O [Bulk Ethenzamide, ethenzamide]
